Experimental data from ChEMBL document CHEMBL1121704, “Fluorinated retinoic acids and their analogues. 2. Synthesis and biological activity of aromatic 4-fluoro analogues” (1981).

Key:
Assay type in all cases: functional
Mus musculus [1] = test: In vivo anti-papilloma activity against chemically induced skin papillomas in mice at dose of 80(mg/kg)/day
Mus musculus [2] = test: In vivo anti-papilloma activity against chemically induced skin papillomas in mice at dose of 20(mg/kg)/day
Mus musculus [3] = test: In vivo anti-papilloma activity against chemically induced skin papillomas in mice at dose of 40 mg/kg/day
Mus musculus [4] = species: Mus musculus; test: Hypervitaminosis dose determined as a measure of toxicity
Mus musculus [5] = test: In vivo anti-papilloma activity against chemically induced skin papillomas in mice at dose of 5(mg/kg)/day
Mus musculus [6] = test: In vivo anti-papilloma activity against chemically induced skin papillomas in mice at dose of 10 mg/kg/day

| SMILES | Antipapilloma activity (Mus musculus [1]) | Antipapilloma activity (Mus musculus [2]) | Antipapilloma activity (Mus musculus [3]) | Dose (Mus musculus [4]) | Antipapilloma activity (Mus musculus [5]) | Antipapilloma activity (Mus musculus [6]) |
| --- | --- | --- | --- | --- | --- | --- |
| CCOC(=O)/C=C(C)/C(F)=C/C=C(C)/C=C/c1c(C)cc(C)c(Cl)c1C | -64% | -29% | -34% | >200 mg/kg/day |  |  |
| CCOC(=O)/C=C(C)/C(F)=C/C=C(C)/C=C/c1c(Cl)cc(OC)c(C)c1Cl |  |  |  | 25 mg/kg/day | -58% |  |
| CCOC(=O)/C=C(C)/C(F)=C/C=C(C)/C=C/c1c(C)cc(OC)c(C)c1Cl |  | -73% |  | 50 mg/kg/day |  |  |
| CCOC(=O)/C=C(C)/C(F)=C/C=C(C)/C=C/c1c(C)cc(OC)c(C)c1C | -82% | -62% | -69% | 50 mg/kg/day | -43% | -76% |
| CCOC(=O)/C=C(C)/C(F)=C/C=C(C)/C=C/c1c(Cl)cc(OC)c(C)c1C |  | -59% |  | 50 mg/kg/day | -41% | -60% |
| CCOC(=O)/C=C(C)/C=C/C=C(C)/C=C/c1c(C)cc(OC)c(C)c1C [ETRETINATE] | -47% | -29% | -33% | 100 mg/kg/day |  | 9% |
